Measurements from patent publication US11382328B2, “Rapid drug discovery methods for pathogen inactivation” (priority 2019, dated 2022).

System: E. coli strain W3110
Test: Synergy assays: Biolog chemical sensitivity panels with Group IB metal, coefficient of drug interaction (CDI) from relative growth
Assay type: cell-based
Conditions: for CDI (coefficient of drug interaction): Copper (mM), E. coli; for CDI (coefficient of drug interaction), gold + biocide: Gold (μM)
[1] = first of 3 gold concentrations, biocide concentration 4 of 4
[2] = second of 3 gold concentrations, biocide concentration 4 of 4
[3] = third of 3 gold concentrations, biocide concentration 4 of 4
[4] = Silver 0.5 μM, biocide concentration 3 of 4
[5] = Silver 0.5 μM, biocide concentration 4 of 4
[6] = Silver 1.0 μM, biocide concentration 3 of 4
[7] = Silver 1.0 μM, biocide concentration 4 of 4
[8] = Silver 5.0 μM, biocide concentration 3 of 4
[9] = Silver 5.0 μM, biocide concentration 4 of 4

colistin
CDI (coefficient of drug interaction) (1st of 3 copper concentrations (head line not shown), biocide concentration 1 of 4): 0.95 | CDI (coefficient of drug interaction) (1st of 3 copper concentrations (head line not shown), biocide concentration 2 of 4): 0.98 | CDI (coefficient of drug interaction) (1st of 3 copper concentrations (head line not shown), biocide concentration 3 of 4): Tox | CDI (coefficient of drug interaction) (1st of 3 copper concentrations (head line not shown), biocide concentration 4 of 4): Tox | CDI (coefficient of drug interaction) (2nd of 3 copper concentrations (head line not shown), biocide concentration 1 of 4): 0.82 | CDI (coefficient of drug interaction) (2nd of 3 copper concentrations (head line not shown), biocide concentration 2 of 4): 0.87 | CDI (coefficient of drug interaction) (2nd of 3 copper concentrations (head line not shown), biocide concentration 3 of 4): Tox | CDI (coefficient of drug interaction) (2nd of 3 copper concentrations (head line not shown), biocide concentration 4 of 4): Tox | CDI (coefficient of drug interaction) (3rd of 3 copper concentrations (head line not shown), biocide concentration 1 of 4): 0.63 | CDI (coefficient of drug interaction) (3rd of 3 copper concentrations (head line not shown), biocide concentration 2 of 4): 0.45 | CDI (coefficient of drug interaction) (3rd of 3 copper concentrations (head line not shown), biocide concentration 3 of 4): Tox | CDI (coefficient of drug interaction) (3rd of 3 copper concentrations (head line not shown), biocide concentration 4 of 4): Tox | CDI (coefficient of drug interaction), gold + biocide (first of 3 gold concentrations, biocide concentration 1 of 4): 1.10 | CDI (coefficient of drug interaction), gold + biocide (first of 3 gold concentrations, biocide concentration 2 of 4): 1.18 | CDI (coefficient of drug interaction), gold + biocide (first of 3 gold concentrations, biocide concentration 3 of 4): Tox | CDI (coefficient of drug interaction), gold + biocide [1]: Tox | CDI (coefficient of drug interaction), gold + biocide (second of 3 gold concentrations, biocide concentration 2 of 4): 0.95 | CDI (coefficient of drug interaction), gold + biocide (second of 3 gold concentrations, biocide concentration 3 of 4): Tox | CDI (coefficient of drug interaction), gold + biocide [2]: Tox | CDI (coefficient of drug interaction), gold + biocide (third of 3 gold concentrations, biocide concentration 1 of 4): 1.09 | CDI (coefficient of drug interaction), gold + biocide (third of 3 gold concentrations, biocide concentration 2 of 4): 0.14 | CDI (coefficient of drug interaction), gold + biocide (third of 3 gold concentrations, biocide concentration 3 of 4): Tox | CDI (coefficient of drug interaction), gold + biocide [3]: Tox | CDI (Silver 0.5 μM, biocide concentration 1 of 4): 0.95 | CDI (Silver 0.5 μM, biocide concentration 2 of 4): 0.75 | CDI [4]: Tox | CDI [5]: Tox | CDI (Silver 1.0 μM, biocide concentration 1 of 4): 0.97 | CDI (Silver 1.0 μM, biocide concentration 2 of 4): 0.24 | CDI [6]: Tox | CDI [7]: Tox | CDI (Silver 5.0 μM, biocide concentration 1 of 4): 0.84 | CDI (Silver 5.0 μM, biocide concentration 2 of 4): 0.08 | CDI [8]: Tox | CDI [9]: Tox

CCN1CCN(C(=O)N[C@@H](C(=O)N[C@@H]2C(=O)N3[C@@H]2SC(C)(C)[C@@H]3C(=O)O)c2ccccc2)C(=O)C1=O [piperacillin]
CDI (coefficient of drug interaction), gold + biocide [1]: Tox | CDI (coefficient of drug interaction), gold + biocide [2]: Tox | CDI (coefficient of drug interaction), gold + biocide [3]: Tox | CDI [4]: Tox | CDI [5]: Tox | CDI [6]: Tox | CDI [7]: Tox | CDI [8]: Tox | CDI [9]: Tox
